From publication PMC10518255, “A first-in-class pan-lysyl oxidase inhibitor impairs stromal remodeling and enhances gemcitabine response and survival in pancreatic cancer” (Nature Cancer, 2023)
“And” between values parts separate entries of the source, which are not always exact repeats. Identical values can stand only once.

Legend:
[1] = target: T1, DAO (Homo sapiens, UniProt P19801); assay: Substrate turnover by H2O2 release, amplex red coupled fluorometric activity assay (Extended Data Fig. 3a); assay type: biochemical
T1 sequence (P19801 20-751): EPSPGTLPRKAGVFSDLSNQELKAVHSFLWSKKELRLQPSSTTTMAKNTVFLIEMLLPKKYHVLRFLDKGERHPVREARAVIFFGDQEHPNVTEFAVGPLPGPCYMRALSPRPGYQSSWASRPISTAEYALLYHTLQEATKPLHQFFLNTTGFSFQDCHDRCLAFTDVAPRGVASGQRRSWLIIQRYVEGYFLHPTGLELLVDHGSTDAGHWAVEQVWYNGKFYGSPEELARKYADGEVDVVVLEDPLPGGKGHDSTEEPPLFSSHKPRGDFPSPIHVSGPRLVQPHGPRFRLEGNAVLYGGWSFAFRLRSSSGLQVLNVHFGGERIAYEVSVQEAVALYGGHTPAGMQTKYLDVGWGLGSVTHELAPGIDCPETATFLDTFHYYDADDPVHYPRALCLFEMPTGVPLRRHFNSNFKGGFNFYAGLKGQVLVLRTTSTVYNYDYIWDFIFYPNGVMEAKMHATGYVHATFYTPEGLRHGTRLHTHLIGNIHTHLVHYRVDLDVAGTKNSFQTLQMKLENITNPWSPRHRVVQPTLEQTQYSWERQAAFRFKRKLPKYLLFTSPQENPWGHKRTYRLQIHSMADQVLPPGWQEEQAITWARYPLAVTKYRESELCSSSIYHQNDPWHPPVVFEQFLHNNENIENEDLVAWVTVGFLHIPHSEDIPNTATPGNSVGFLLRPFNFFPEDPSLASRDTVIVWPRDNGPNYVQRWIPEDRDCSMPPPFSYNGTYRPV
From the text: Specifically, BAPN is oxidized by diamine oxidase (DAO) and semicarbazide-sensitive amine oxidase (SSAO)/vascular adhesion protein 1 (VAP-1) in the vasculature (Extended Data Fig. 3a), which releases hydrogen […] (H2O2) and aldehyde in humans leading to toxicity.
Data presented as mean values +/− SD. f. […] Data presented as mean values +/− SD. […] Data presented as mean values +/− SD. […] Data presented as mean values +/− SD. Ordinary one-way ANOVA for multiple comparison test performed. Source data

[2] = system: KPC CAF remodeled 3D collagen matrices; assay: Matrix stiffness by unconfined compression testing of organotypic matrices; assay type: cell-based, mouse; settings: day 12, PXS-5505 30 µM, normalized to control, individual samples
Method: Fig. 3 PXS-5505 inhibition of CAF remodeling in vitro. a, Quantitative PCR with reverse transcription (qRT–PCR) showing in vitro comparison of KPC CAF relative expression of lysyl oxidase family members compared to KPC CCs from the same model (n = 3 biologically independent samples). Comparisons were determined by 2^–∆∆Ct approach. b, Representative images of 3D organotypic matrix contraction assay at days 2, 6 and 12 in the absence (gray) or presence (pink) of PXS-5505 (30 µM). Scale bars, 5 mm. Comparison of measured area of matrices between control and PXS-5505 treatment groups over time (n = 3 technical samples examined over three biologically independent samples). Data are mean ± s.d. c, Concentration of immature divalent DHLNL and mature trivalent Pyr collagen crosslinks determined by LC–MS from control and PXS-5505-treated organotypic matrices at day 12 (n = 3 technical samples examined over two biologically independent samples). Data are mean ± s.d. […] Data are presented as mean ± s.d. […] Comparison of number of CCs invaded per field of view (FOV) as determined by H&E and PanCK staining (nine images taken from three technical samples from each of three biologically independent contracted matrices), normalized to control. Data are mean ± s.d. Scale bars, 100 μm. […] Source data […]

Cl.Cl.NC/C=C(\F)CS(=O)(=O)c1cccc2cccnc12.O [PXS-5505, (Z)-3-fluoro-4-(quinolin-8-ylsulfonyl)but-2-en-1-amine dihydrochloride monohydrate]
processing as a substrate by DAO [1]: not processed as a substrate | Turnover by DAO as measured by H2O2 release, mean ([1]; listed as value 30 (unit not given)): 0.9677 | Turnover by DAO as measured by H2O2 release, mean ([1]; listed as value 60 (unit not given)): 0.9315 | Turnover by DAO as measured by H2O2 release, mean ([1]; listed as value 300 (unit not given)): 1.1475 | matrix stiffness by unconfined compression testing [2]: 0.918 and 0.779 and 0.916 and 0.962 and 0.835 and 0.748 and 0.939 and 0.975
